From ChEMBL document CHEMBL1142187, “In vitro and in vivo activities of Chios mastic gum extracts and constituents against Helicobacter pylori” (2007)
Converted amounts (≈) assume the structure as drawn.

System: Helicobacter pylori
Assay: Antibacterial activity against Helicobacter pylori after 48 hrs
Type: functional

Row | SMILES | MBC [µg/mL]
1 | C/C(=C/CC[C@H](C)C1CC[C@]2(C)C3=CCC4C(C)(C)[C@@H](O)CC[C@]4(C)C3CC[C@@]12C)C(=O)O (stereo partly specified) | 220 (≈ 482 µM)
2 | C/C(=C/CC[C@H](C)C1CC[C@]2(C)C3=C(CC[C@@]12C)[C@@]1(C)CC[C@H](O)C(C)(C)C1CC3)C(=O)O (stereo partly specified) | 202 (≈ 442 µM)
3 | CC1(C)C=C2[C@H]3CC[C@@H]4[C@@]5(C)CCC(=O)C(C)(C)[C@@H]5CC[C@@]4(C)[C@]3(C)CC[C@@]2(C(=O)O)CC1 [MORONIC ACID] | 310 (≈ 682 µM)
4 | CC1(C)CC[C@]2(C(=O)O)CC[C@]3(C)C(=CC[C@@H]4[C@@]5(C)CCC(=O)C(C)(C)[C@@H]5CC[C@]43C)[C@@H]2C1 [OLEANONIC ACID] | 292 (≈ 642 µM)
5 | C/C(=C/CC[C@H](C)C1CC[C@]2(C)C3=C(CC[C@@]12C)[C@@]1(C)CCC(=O)C(C)(C)C1CC3)C(=O)O (stereo partly specified) | 333 (≈ 732 µM)
6 | C/C(=C/CC[C@H](C)C1CC[C@]2(C)C3=CCC4C(C)(C)C(=O)CC[C@]4(C)C3CC[C@@]12C)C(=O)O (stereo partly specified) | 350 (≈ 770 µM)
